Legend:
Assay type in all cases: cell-based
[1] = molecular target: T1, human GHR (Homo sapiens, UniProt P10912); test: c-fos reporter luciferase assay, GH-stimulated cells; conditions: for GH induced increase in c-fos reporter activity: FIG. 5A; for c-fos reporter activity, % of untreated controls: cells serum starved, incubated with test compound (10 μM), treated with GH, normalized to renilla luciferase
T1 construct: expressed in transfected cells; HEK293 according to the assay procedure
T1 sequence (P10912 19-638): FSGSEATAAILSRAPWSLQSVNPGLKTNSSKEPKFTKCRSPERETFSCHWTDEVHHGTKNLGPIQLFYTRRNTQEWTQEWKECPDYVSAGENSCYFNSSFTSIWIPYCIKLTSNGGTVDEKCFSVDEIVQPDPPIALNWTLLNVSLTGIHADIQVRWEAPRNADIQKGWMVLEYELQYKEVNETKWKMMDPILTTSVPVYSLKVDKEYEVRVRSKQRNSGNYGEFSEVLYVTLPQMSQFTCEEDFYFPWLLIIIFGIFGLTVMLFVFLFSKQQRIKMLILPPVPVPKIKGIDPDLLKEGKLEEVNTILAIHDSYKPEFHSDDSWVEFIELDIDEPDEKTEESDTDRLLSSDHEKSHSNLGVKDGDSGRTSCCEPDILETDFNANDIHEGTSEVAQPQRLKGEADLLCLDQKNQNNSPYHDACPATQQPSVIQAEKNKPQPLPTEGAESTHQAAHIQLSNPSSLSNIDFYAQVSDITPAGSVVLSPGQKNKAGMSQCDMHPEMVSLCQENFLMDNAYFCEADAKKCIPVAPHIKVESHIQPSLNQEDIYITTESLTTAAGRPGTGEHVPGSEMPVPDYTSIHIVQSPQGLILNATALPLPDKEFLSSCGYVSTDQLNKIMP
Description: (§1) FIG. 5A. Lead compounds (#34, 37, 38) identified by luciferase reporter assays. Mouse L cells expressing human GHR were transfected with c-fos or SOCS2 reporter luciferase plasmids. Cells were serum starved, incubated with test compounds (#34, 37, 38) and then treated with GH. Data are normalized to co-transfected CMV-driven renilla luciferase and expressed as relative light units (RLU). (A) c-fos reporter luciferase activity.
(§2) In order to perform high throughput screening (HTS) for inhibitors of GHR, HEK293 cell lines permanently transfected were established with a luciferase reporter driven by either c-fos or SOCS2 promoter (FIG. 7).
(§3) The SOCS (Suppressor of Cytokine Signaling) proteins are induced by GH and act as negative regulators of cytokine signaling pathways. […] Luciferase reporter constructs where the luciferase gene is under the control of promoters of either SOCS2 or c-fos have been stably transfected into human embryonic kidney, HEK293 cells. Cells were serum starved (0.5% FBS) for 24 hours to prevent interference by other growth factors and then treated with 5 or 10 nM hGH (established in dose response studies) and 10 μM of each test compound for 24 hours. This is followed by lysis and analysis of luciferase activity using the luciferase reporter assay (Promega). Each compound is tested in triplicate in a 96 well plate format.

[2] = test system: human GHR; test: STAT5 phosphorylation assay (western blot), small molecules; conditions: mouse L cells expressing human GHR; compound 30 min prior to 5 nM hGH; FIG. 6
Description: FIG. 6. […] (A) Mouse L cells were incubated in 0.5% serum for 24 hours. Cells were treated with compounds 34, 37 or 38 for 30 min prior to 5 nM hGH treatment. The growth hormone antagonist (GHA) was used as a positive control.
The JAK/STAT signaling pathway is the principal signaling mechanism for a variety of growth factors and cytokines. In the growth hormone signaling pathway, dimerization of the GHR in response to GH binding leads to the activation of JAK by transphosphorylation. Activated JAK phosphorylates STAT5, which can then enter the nucleus and activate transcription of target genes. Inhibition of STAT5 phosphorylation will be used to analyze GHR antagonistic properties of the test compounds.
Mouse L fibroblasts engineered to express […] were obtained from Dr. John Kopchick. Serum starved L cells (0.5% FBS for 24 hours) were pre-treated for 30 minutes with 10 μM of each compound identified as a hit from the luciferase assays. Following this, cells were treated with 5 or 10 nM hGH for 10 minutes. Cells were collected and processed for western blotting with phospho-STAT5 and total STAT5 antibodies (Cell Signaling). The GHR antagonist, G120K is used as a positive control. Band intensity was analyzed using ImageJ and STAT5 phosphorylation normalized to total STAT5 levels. Compounds that inhibited STAT5 phosphorylation were selected for further drug optimization.

[3] = molecular target: T1, human GHR; test: SOCS2 reporter luciferase assay, GH-stimulated cells; conditions: for GH induced increase in SOCS2 reporter activity: FIG. 5B; for SOCS2 reporter activity, % of untreated controls: cells serum starved, incubated with test compound (10 μM), treated with GH, normalized to renilla luciferase
Description: as §1, with “5B.” for “5A.”, “starved, then” for “starved,”, “before GH treatment.” for “and then treated with GH.”, “were” for “are”, “(B) SOCS2” for “(A) c-fos”
FIG. 7. High throughput screening (HTS) platform for the identification of GHR inhibitors. Mouse L cells expressing human GHR were transfected with SOCS2 reporter luciferase plasmids. Cells were serum starved, pre-treated with test compounds (numbered as shown) and then GH. Data are normalized to CMV renilla luciferase and expressed as relative light units (RLU).
as §2, §3

GH induced increase in c-fos reporter activity [1]	c-fos reporter activity, % of untreated controls [1]	GH induced increase in SOCS2 reporter activity [3]	SOCS2 reporter activity, % of untreated controls [3]	Structure (SMILES)	GH induced phosphorylation of STAT5 [2]
inhibited	57%	inhibited	76%	O=C(Nc1cccc(S(=O)(=O)N2CCCCCC2)c1)c1ccco1 [Compound 34]	able to inhibit phosphorylation of STAT5
inhibited	27%	inhibited	61%	CNS(=O)(=O)c1cc(NC(=O)c2ccc(CSc3ccccc3)o2)ccc1C [Compound 37]	able to inhibit phosphorylation of STAT5

From patent US10246446B2, “Blockers of the growth hormone receptor in disease prevention and treatment” (UNIVERSITY OF SOUTHERN CALIFORNIA, priority 2015, dated 2019)
